Results: patent US9340590B2 (priority 2011, dated 2016)
Like-named read-outs stand apart in the source and are kept apart here. Positions of bridges follow the written chain, without caps; N, C: chain ends. Non-standard residues stand in square brackets, D forms with d. Residues, ends and D or L forms follow the SMILES beside them. Arg(Me2s) = CN=C(NC)NCCC[C@H](N)C(=O)O; Lys(Me2) = CN(C)CCCC[C@H](N)C(=O)O

Columns and labels:
Assay in all cases: cell-based
[1] = biological target: T1, hNav1.3 (Homo sapiens, UniProt Q9NY46); type: cell-based; settings: Nav1.3 Use IC50
T1 sequence (Q9NY46 whole entry, looked up): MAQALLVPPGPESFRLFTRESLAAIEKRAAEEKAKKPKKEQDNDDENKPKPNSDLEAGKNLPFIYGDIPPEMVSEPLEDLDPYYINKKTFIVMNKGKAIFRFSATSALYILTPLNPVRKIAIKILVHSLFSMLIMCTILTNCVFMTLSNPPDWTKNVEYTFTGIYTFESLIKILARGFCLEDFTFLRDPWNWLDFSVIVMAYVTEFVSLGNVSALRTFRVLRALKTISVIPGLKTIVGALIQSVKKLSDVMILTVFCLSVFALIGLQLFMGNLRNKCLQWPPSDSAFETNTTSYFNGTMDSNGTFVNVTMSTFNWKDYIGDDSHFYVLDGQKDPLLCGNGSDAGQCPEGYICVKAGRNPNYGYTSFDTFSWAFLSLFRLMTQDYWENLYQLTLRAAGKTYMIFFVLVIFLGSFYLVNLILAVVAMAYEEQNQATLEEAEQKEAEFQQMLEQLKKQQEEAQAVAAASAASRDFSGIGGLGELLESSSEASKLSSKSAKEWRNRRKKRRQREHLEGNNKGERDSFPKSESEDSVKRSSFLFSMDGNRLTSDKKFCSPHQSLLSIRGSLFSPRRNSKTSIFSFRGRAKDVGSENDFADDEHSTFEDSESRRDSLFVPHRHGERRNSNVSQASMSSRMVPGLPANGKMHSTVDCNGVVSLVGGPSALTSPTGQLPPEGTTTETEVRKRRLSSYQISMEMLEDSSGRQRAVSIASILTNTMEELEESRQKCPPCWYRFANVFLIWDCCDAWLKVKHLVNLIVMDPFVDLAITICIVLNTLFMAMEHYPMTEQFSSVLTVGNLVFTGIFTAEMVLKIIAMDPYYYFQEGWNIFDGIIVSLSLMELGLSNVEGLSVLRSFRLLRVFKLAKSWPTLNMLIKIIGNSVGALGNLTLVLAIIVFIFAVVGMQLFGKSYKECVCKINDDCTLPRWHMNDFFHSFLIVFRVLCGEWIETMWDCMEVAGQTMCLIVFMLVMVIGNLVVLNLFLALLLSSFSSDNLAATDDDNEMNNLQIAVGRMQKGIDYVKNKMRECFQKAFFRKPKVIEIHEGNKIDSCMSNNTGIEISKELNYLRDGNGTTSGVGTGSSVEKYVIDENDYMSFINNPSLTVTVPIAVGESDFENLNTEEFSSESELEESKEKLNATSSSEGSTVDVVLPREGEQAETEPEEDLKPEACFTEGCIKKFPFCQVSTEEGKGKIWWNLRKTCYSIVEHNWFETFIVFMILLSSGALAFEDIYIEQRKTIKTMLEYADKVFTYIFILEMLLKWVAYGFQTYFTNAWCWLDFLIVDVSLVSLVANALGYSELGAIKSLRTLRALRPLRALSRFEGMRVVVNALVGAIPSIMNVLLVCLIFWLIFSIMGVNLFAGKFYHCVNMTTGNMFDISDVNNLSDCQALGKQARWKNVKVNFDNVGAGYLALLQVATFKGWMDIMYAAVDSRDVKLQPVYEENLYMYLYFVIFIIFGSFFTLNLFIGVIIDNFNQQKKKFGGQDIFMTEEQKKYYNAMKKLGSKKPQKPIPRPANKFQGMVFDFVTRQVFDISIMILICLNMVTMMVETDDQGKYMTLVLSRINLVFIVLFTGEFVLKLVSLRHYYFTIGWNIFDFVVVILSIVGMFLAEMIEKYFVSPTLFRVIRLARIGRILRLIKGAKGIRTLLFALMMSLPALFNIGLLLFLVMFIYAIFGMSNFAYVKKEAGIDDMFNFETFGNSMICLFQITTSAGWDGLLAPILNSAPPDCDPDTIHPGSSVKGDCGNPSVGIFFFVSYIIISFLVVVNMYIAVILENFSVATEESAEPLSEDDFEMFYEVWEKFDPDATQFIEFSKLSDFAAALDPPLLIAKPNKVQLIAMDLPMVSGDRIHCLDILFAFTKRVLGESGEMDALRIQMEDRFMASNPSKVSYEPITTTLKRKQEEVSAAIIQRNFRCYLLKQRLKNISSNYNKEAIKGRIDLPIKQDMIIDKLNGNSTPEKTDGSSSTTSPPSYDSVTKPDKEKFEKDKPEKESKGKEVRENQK

[2] = biological target: T2, hNav1.7 (Homo sapiens, UniProt Q15858); settings: Nav1.7 Use IC50
[3] = biological target: T3, hNav1.5 (Homo sapiens, UniProt Q14524)
T3 sequence (Q14524 whole entry, looked up): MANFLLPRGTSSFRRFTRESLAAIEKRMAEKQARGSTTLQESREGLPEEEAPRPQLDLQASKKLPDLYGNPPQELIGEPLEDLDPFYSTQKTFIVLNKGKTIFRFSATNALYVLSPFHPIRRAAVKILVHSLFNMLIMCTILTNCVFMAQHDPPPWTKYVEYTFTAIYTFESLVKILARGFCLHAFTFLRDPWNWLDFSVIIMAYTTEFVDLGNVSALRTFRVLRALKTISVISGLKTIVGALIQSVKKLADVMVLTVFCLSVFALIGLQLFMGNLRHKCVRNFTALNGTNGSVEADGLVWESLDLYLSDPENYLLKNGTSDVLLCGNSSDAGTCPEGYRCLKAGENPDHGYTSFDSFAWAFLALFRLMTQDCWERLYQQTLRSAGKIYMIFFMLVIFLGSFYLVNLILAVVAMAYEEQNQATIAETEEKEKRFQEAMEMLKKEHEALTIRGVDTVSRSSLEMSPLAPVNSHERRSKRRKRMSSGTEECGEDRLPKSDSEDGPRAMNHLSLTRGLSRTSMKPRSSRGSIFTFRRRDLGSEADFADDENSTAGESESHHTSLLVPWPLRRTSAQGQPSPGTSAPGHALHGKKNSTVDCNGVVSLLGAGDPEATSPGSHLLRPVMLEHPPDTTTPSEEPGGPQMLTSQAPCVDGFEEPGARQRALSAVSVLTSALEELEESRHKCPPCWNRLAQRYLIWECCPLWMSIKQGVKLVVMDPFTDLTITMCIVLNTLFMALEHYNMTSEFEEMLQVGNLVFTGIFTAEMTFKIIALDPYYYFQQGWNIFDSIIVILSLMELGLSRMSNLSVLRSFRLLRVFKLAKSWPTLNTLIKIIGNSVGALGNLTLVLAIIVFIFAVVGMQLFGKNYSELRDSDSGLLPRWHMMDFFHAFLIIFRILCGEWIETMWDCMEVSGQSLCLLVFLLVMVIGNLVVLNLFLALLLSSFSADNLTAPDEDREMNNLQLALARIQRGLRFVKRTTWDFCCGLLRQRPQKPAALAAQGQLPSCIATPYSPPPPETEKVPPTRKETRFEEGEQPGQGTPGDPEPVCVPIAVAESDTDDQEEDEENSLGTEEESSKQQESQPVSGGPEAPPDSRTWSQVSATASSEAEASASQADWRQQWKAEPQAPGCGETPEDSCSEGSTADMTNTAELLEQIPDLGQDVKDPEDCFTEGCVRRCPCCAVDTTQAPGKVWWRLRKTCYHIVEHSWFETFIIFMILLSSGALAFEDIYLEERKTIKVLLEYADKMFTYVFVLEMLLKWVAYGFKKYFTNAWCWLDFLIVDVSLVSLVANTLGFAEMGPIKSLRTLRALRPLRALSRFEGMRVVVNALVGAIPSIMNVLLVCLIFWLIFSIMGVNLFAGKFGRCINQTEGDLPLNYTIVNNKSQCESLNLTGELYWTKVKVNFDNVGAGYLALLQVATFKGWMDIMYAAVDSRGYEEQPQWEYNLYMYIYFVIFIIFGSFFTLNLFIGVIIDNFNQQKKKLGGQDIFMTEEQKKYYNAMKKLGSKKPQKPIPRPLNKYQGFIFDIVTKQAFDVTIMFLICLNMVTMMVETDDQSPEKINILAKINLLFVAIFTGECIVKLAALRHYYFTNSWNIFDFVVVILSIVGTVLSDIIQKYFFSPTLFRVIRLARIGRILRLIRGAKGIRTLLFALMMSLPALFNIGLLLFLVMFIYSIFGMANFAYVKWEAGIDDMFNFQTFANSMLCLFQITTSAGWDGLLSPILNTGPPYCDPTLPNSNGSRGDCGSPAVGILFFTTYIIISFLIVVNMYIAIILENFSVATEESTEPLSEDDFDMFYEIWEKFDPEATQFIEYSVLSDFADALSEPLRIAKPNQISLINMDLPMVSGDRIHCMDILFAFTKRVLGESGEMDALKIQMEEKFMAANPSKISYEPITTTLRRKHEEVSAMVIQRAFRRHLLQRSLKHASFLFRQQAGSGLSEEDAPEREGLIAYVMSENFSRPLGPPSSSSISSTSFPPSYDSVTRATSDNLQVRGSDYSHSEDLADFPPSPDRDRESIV

[4] = biological target: T3, hNav1.5; settings: IonWorks Quattro, use-dependent block, hNav1.5; read-out: IWQ Use Nav1.5
[5] = biological target: T2, hNav1.7; type: cell-based; settings: IonWorks Quattro, use-dependent block, hNav1.7; read-out: IWQ Use Nav1.7
[6] = biological target: T1, hNav1.3; settings: IonWorks Quattro, use-dependent block, hNav1.3; read-out: IWQ Use Nav1.3

Structure (SMILES)	IC50 [1] [µM]	IC50 [2] [µM]	IC50 [3] [µM]	IC50 [4] [µM]	IC50 [5] [µM]	IC50 [6] [µM]
CC[C@H](C)[C@@H]1NC(=O)[C@@H]2CSSC[C@@H]3NC(=O)[C@H](C(C)C)NC(=O)[C@H](CC(C)C)NC(=O)[C@H](CC(N)=O)NC(=O)[C@@H]4CCCN4C(=O)[C@H](CCCNC(=N)N)NC(=O)[C@H](CSSC[C@H](NC(=O)[C@@H](N)CC(=O)O)C(=O)N[C@@H](CC(C)C)C(=O)NCC(=O)N[C@@H](C)C(=O)N[C@@H](CCSC)C(=O)N[C@@H](CCCNC(=N)N)C(=O)N[C@@H](CCCCN)C(=O)N2)NC(=O)[C@H](CSSC[C@@H](C(=O)N[C@@H](CCCCN)C(=O)N[C@@H](Cc2ccc(O)cc2)C(=O)N[C@H](C(=O)N[C@@H](Cc2ccccc2)C(N)=O)C(C)C)NC(=O)[C@H](Cc2c[nH]c4ccccc24)NC(=O)[C@H](CCCCN)NC(=O)[C@H](Cc2cnc[nH]2)NC(=O)[C@H](CC(C)C)NC(=O)[C@H](CCCNC(=N)N)NC(=O)[C@H](CO)NC3=O)NC(=O)[C@H](CCCCN)NC(=O)[C@H](CC(=O)O)NC(=O)[C@H](CC(N)=O)NC(=O)[C@H](CC(=O)O)NC(=O)[C@@H]2CCCN2C1=O [[Ala5;Leu26]GpTx-1(1-34)] (H-DCLGAMRKCIPDNDKCCRPNLVCSRLHKWCKYVF-NH2; disulfide 2-17, 9-23, 16-30)	0.47	0.049	–	–	–	–
CC[C@H](C)[C@@H]1NC(=O)[C@@H]2CSSC[C@@H]3NC(=O)[C@H](C(C)C)NC(=O)[C@H](CC(C)C)NC(=O)[C@H](CC(N)=O)NC(=O)[C@@H]4CCCN4C(=O)[C@H](CCCNC(=N)N)NC(=O)[C@H](CSSC[C@H](NC(=O)[C@@H](N)CC(=O)O)C(=O)N[C@@H](CC(C)C)C(=O)NCC(=O)N[C@@H](C)C(=O)N[C@@H](Cc4ccccc4)C(=O)N[C@@H](CCCNC(=N)N)C(=O)N[C@@H](CCCCN)C(=O)N2)NC(=O)[C@H](CSSC[C@@H](C(=O)N[C@@H](CCCCN)C(=O)N[C@@H](Cc2ccc(O)cc2)C(=O)N[C@H](C(=O)N[C@@H](Cc2ccccc2)C(N)=O)C(C)C)NC(=O)[C@H](Cc2c[nH]c4ccccc24)NC(=O)[C@H](CCCCN)NC(=O)[C@H](Cc2cnc[nH]2)NC(=O)[C@H](CC(C)C)NC(=O)[C@H](CCCNC(=N)N)NC(=O)[C@H](CO)NC3=O)NC(=O)[C@H](CCCCN)NC(=O)[C@H](CC(=O)O)NC(=O)[C@H](CC(N)=O)NC(=O)[C@H](CC(=O)O)NC(=O)[C@@H]2CCCN2C1=O [[Ala5;Phe6;Leu26]GpTx-1(1-34)] (H-DCLGAFRKCIPDNDKCCRPNLVCSRLHKWCKYVF-NH2; disulfide 2-17, 9-23, 16-30)	0.011	–	–	–	–	–
CC[C@H](C)[C@@H]1NC(=O)[C@@H]2CSSC[C@@H]3NC(=O)[C@H](C(C)C)NC(=O)[C@H](CC(C)C)NC(=O)[C@H](CC(N)=O)NC(=O)[C@@H]4CCCN4C(=O)[C@H](CCCNC(=N)N)NC(=O)[C@H](CSSC[C@H](NC(=O)[C@@H](N)CC(=O)O)C(=O)N[C@@H](CC(C)C)C(=O)NCC(=O)N[C@@H](Cc4ccccc4)C(=O)N[C@@H](CCSC)C(=O)N[C@@H](CCCCN(C)C)C(=O)N[C@@H](CCCCN)C(=O)N2)NC(=O)[C@H](CSSC[C@@H](C(=O)N[C@@H](CCCCN)C(=O)N[C@@H](Cc2ccc(O)cc2)C(=O)N[C@H](C(=O)N[C@@H](Cc2ccccc2)C(N)=O)C(C)C)NC(=O)[C@H](Cc2c[nH]c4ccccc24)NC(=O)[C@H](CCCCN)NC(=O)[C@H](Cc2c[nH]cn2)NC(=O)[C@H]([C@@H](C)O)NC(=O)[C@H](CCCNC(=N)N)NC(=O)[C@H](CO)NC3=O)NC(=O)[C@H](CCCCN)NC(=O)[C@H](CC(=O)O)NC(=O)[C@H](CC(N)=O)NC(=O)[C@H](CC(=O)O)NC(=O)[C@@H]2CCCN2C1=O [[K(Me2)7]GpTx-1(1-34)] (H-DCLGFM[Lys(Me2)]KCIPDNDKCCRPNLVCSRTHKWCKYVF-NH2; disulfide 2-17, 9-23, 16-30)	–	0.02	> 10	13.3	0.82	0.27
CC[C@H](C)[C@@H]1NC(=O)[C@@H]2CSSC[C@@H]3NC(=O)[C@H](C(C)C)NC(=O)[C@H](CC(C)C)NC(=O)[C@H](CC(N)=O)NC(=O)[C@@H]4CCCN4C(=O)[C@H](CCCNC(=N)N)NC(=O)[C@H](CSSC[C@H](NC(=O)[C@@H](N)CC(=O)O)C(=O)N[C@@H](CC(C)C)C(=O)NCC(=O)N[C@@H](Cc4ccccc4)C(=O)N[C@@H](CCSC)C(=O)N[C@@H](CCCNC(=N)N)C(=O)N[C@@H](CCCCN(C)C)C(=O)N2)NC(=O)[C@H](CSSC[C@@H](C(=O)N[C@@H](CCCCN)C(=O)N[C@@H](Cc2ccc(O)cc2)C(=O)N[C@H](C(=O)N[C@@H](Cc2ccccc2)C(N)=O)C(C)C)NC(=O)[C@H](Cc2c[nH]c4ccccc24)NC(=O)[C@H](CCCCN)NC(=O)[C@H](Cc2c[nH]cn2)NC(=O)[C@H]([C@@H](C)O)NC(=O)[C@H](CCCNC(=N)N)NC(=O)[C@H](CO)NC3=O)NC(=O)[C@H](CCCCN)NC(=O)[C@H](CC(=O)O)NC(=O)[C@H](CC(N)=O)NC(=O)[C@H](CC(=O)O)NC(=O)[C@@H]2CCCN2C1=O [[K(Me2)8]GpTx-1(1-34)]	–	0.004	> 10	9.46	0.19	0.18
CC[C@H](C)[C@@H]1NC(=O)[C@@H]2CSSC[C@@H]3NC(=O)[C@H](C(C)C)NC(=O)[C@H](CC(C)C)NC(=O)[C@H](CC(N)=O)NC(=O)[C@@H]4CCCN4C(=O)[C@H](CCCNC(=N)N)NC(=O)[C@H](CSSC[C@H](NC(=O)[C@@H](N)CC(=O)O)C(=O)N[C@@H](CC(C)C)C(=O)NCC(=O)N[C@@H](Cc4ccccc4)C(=O)N[C@@H](CCSC)C(=O)N[C@@H](CCCNC(=NC)NC)C(=O)N[C@@H](CCCCN)C(=O)N2)NC(=O)[C@H](CSSC[C@@H](C(=O)N[C@@H](CCCCN)C(=O)N[C@@H](Cc2ccc(O)cc2)C(=O)N[C@H](C(=O)N[C@@H](Cc2ccccc2)C(N)=O)C(C)C)NC(=O)[C@H](Cc2c[nH]c4ccccc24)NC(=O)[C@H](CCCCN)NC(=O)[C@H](Cc2c[nH]cn2)NC(=O)[C@H]([C@@H](C)O)NC(=O)[C@H](CCCNC(=N)N)NC(=O)[C@H](CO)NC3=O)NC(=O)[C@H](CCCCN)NC(=O)[C@H](CC(=O)O)NC(=O)[C@H](CC(N)=O)NC(=O)[C@H](CC(=O)O)NC(=O)[C@@H]2CCCN2C1=O [[SDMA7]GpTx-1(1-34)]	–	0.006	14	10.3	0.24	0.12
CC[C@H](C)[C@@H]1NC(=O)[C@@H]2CSSC[C@@H]3NC(=O)[C@H](C(C)C)NC(=O)[C@H](CC(C)C)NC(=O)[C@H](CC(N)=O)NC(=O)[C@@H]4CCCN4C(=O)[C@H](CCCNC(=N)N)NC(=O)[C@H](CSSC[C@H](NC(=O)[C@@H](N)CC(=O)O)C(=O)N[C@@H](CC(C)C)C(=O)NCC(=O)N[C@@H](Cc4ccccc4)C(=O)N[C@@H](CCSC)C(=O)N[C@@H](CCCNC(=N)N)C(=O)N[C@@H](CCCNC(=NC)NC)C(=O)N2)NC(=O)[C@H](CSSC[C@@H](C(=O)N[C@@H](CCCCN)C(=O)N[C@@H](Cc2ccc(O)cc2)C(=O)N[C@H](C(=O)N[C@@H](Cc2ccccc2)C(N)=O)C(C)C)NC(=O)[C@H](Cc2c[nH]c4ccccc24)NC(=O)[C@H](CCCCN)NC(=O)[C@H](Cc2c[nH]cn2)NC(=O)[C@H]([C@@H](C)O)NC(=O)[C@H](CCCNC(=N)N)NC(=O)[C@H](CO)NC3=O)NC(=O)[C@H](CCCCN)NC(=O)[C@H](CC(=O)O)NC(=O)[C@H](CC(N)=O)NC(=O)[C@H](CC(=O)O)NC(=O)[C@@H]2CCCN2C1=O [[SDMA8]GpTx-1(1-34)] (H-DCLGFMR[Arg(Me2s)]CIPDNDKCCRPNLVCSRTHKWCKYVF-NH2; disulfide 2-17, 9-23, 16-30)	–	0.005	> 10	9.05	0.2	0.2
CC[C@H](C)[C@@H]1NC(=O)[C@@H]2CSSC[C@@H]3NC(=O)[C@H](C(C)C)NC(=O)[C@H](CC(C)C)NC(=O)[C@H](CC(N)=O)NC(=O)[C@@H]4CCCN4C(=O)[C@H](CCCNC(=N)N)NC(=O)[C@H](CSSC[C@H](NC(=O)[C@@H](N)CC(=O)O)C(=O)N[C@@H](CC(C)C)C(=O)NCC(=O)N[C@@H](Cc4ccccc4)C(=O)N[C@@H](CCSC)C(=O)N[C@@H](CCCNC(=N)N)C(=O)N[C@@H]([C@@H](C)O)C(=O)N2)NC(=O)[C@H](CSSC[C@@H](C(=O)N[C@@H](CCCCN)C(=O)N[C@@H](Cc2ccc(O)cc2)C(=O)N[C@H](C(=O)N[C@@H](Cc2ccccc2)C(N)=O)C(C)C)NC(=O)[C@H](Cc2c[nH]c4ccccc24)NC(=O)[C@H](CCCCN)NC(=O)[C@H](Cc2c[nH]cn2)NC(=O)[C@H]([C@@H](C)O)NC(=O)[C@H](CCCNC(=N)N)NC(=O)[C@H](CO)NC3=O)NC(=O)[C@H](CCCCN)NC(=O)[C@H](CC(=O)O)NC(=O)[C@H](CC(N)=O)NC(=O)[C@H](CC(=O)O)NC(=O)[C@@H]2CCCN2C1=O [[Thr8]GpTx-1(1-34)] (H-DCLGFMRTCIPDNDKCCRPNLVCSRTHKWCKYVF-NH2; disulfide 2-17, 9-23, 16-30)	–	0.009	> 10	9.86	0.35	0.15
